Assay results: patent US10561658B2, “Thieno- and pyrrolopyrimidine analogues as anticancer agents and methods of use thereof” (UNIVERSITY OF MARYLAND, BALTIMORE COUNTY, priority 2015, dated 2020)

Tests used:
[1] = system: Staphylococcus aureus subsp. aureus (MRSA) ATCC 43300; test: Antimicrobial growth inhibition, S. aureus (MRSA); format: cell-based; details: Staphylococcus aureus (MRSA) ATCC 43300, 100 μM
Procedure: (§1) Evaluation of antimicrobial activity in vitro. Compounds were tested against the following panel of bacteria and fungi purchased from the American Type Culture Collection (ATCC). Briefly, bacteria were grown to mid-log phase, diluted with fresh medium to an optical density at 600 nm (OD600) of 0.030-0.060 and then diluted again 1:10. This suspension (195 μL) was added to wells in a 96 well microtiter plate (Sarstedt) and 5 μL of compound dissolved in DMSO was added to give a final concentration of 100-0.1 μM at 2.5% DMSO by volume. A DMSO negative control and standard antibiotic positive controls were included in each plate. All compounds were tested in triplicate for each concentration. Plates were sealed with parafilm, placed in a Ziploc bag to prevent evaporation, and incubated at 30° C. (fungi) or 37° C. (bacteria) for 16-20 hours (48 hours for C. neoformans). The OD600 values for each well were determined with a plate reader (Biotek, EL800) and the data were standardized to the DMSO control wells after subtracting the background from blank medium. Initial single concentrations were tested at 100 μM and active compounds were further tested with at least nine concentrations for a full dose response. Dose response curves were generated using GraphPad Prism 5 software and used to determine the MIC95 concentrations (minimal concentration that inhibits 95% of growth). Compounds 1, 2, 5 and 19 were screened for growth inhibition activity against a panel of bacteria and fungi at a concentration of 100 as shown in Table 2. Compound 5 was included to test the importance of the C4-Cl substituent for activity across a broader range of biological systems.

twenty kinases = test: Select Screen kinase profiling, twenty kinases; format: biochemical; details: 5 μM
From the text: The thieno[3,2-d]pyrimidine scaffold has been used extensively in the design of kinase inhibitors.

L1210 cells = test: Cell cycle distribution (propidium iodide, flow cytometry), L1210; format: cell-based, mouse; details: IC50 concentrations, 24 h or 48 h
Procedure: 0.32 μM compound 1, b. 5.4 μM compound 2, and analyzed by flow cytometry of fixed, propidium iodide-stained cells. A minimum of 3000 cells were analyzed per cell population. Each bar represents the mean±SD across 4 independent cell samples.
Many antineoplastic compounds arrest cell proliferation by activating specific checkpoints that block progression through the cell cycle. To test whether compounds 1 or 2 inhibited cell proliferation by this mechanism, their effects on L1210 cell cycle distributions were monitored using propidium iodide staining and flow cytometry (FIG. 7). Cell cycle and apoptosis studies were conducted on L1210, a mouse lymphocytic leukemia cell line obtained from the American Type Culture Collection and grown in Dulbecco's Modified Eagle's Medium (DMEM) plus 10% fetal bovine serum (FBS). 2×10^6 cells were seeded in 100 mm dishes and treated with vehicle alone or compounds 1 or 2 at the IC50 values determined by cell viability assays or an equivalent volume of DMSO. At 24 and 48 h following treatment the cells were collected, fixed, and stained with propidium iodide (Sigma Aldrich) immediately before analysis by flow cytometry. Vehicle-treated cells were largely confined to G1 and S phases, with very small (<5%) subpopulations in the G2/M phase or showing sub-(<G1) or super-genomic (>G2) DNA content.

[2] = system: Enterococcus faecalis (FRE) ATCC 51299; test: Antimicrobial growth inhibition, E. faecalis; format: cell-based; details: ATCC51299; Enterococcus faecalis ATCC 51299, 100 μM
Procedure: as §1, with “Compounds 1, 2, 5 and 19 were screened for growth inhibition activity against a panel of bacteria and fungi at a concentration of 100 as shown in Table 2. Compound 5 was included to test the importance of the C4-Cl substituent for activity across a broader range of biological systems.” left out

MDA-MB-231 cells [3] = test: Cell cycle distribution (propidium iodide, flow cytometry), MDA-MB-231; format: cell-based, human
Procedure: Cell cycle distributions of MDA-MB-231 cells after 48 hours in the presence of equitoxic (IC80) doses of (a) compound 1 (15 μM) or (b) compound 2 (8 μM) analyzed by flow cytometry of fixed, propidium iodide-stained cells and compared to vehicle controls (DMSO). A minimum of 3000 cells were analyzed per cell population. Each bar represents the mean±SD across 4 independent cell samples.
Cell-cycle and apoptosis studies were conducted in MDA-MB-231 cells. Cell-cycle analysis of compound 19 at 15 μM concentration lead to arrest of 60% cells in G2/M stage. Similarly, at 1.75 μM concentration, compound 20 arrested 30% of cells in G2/M stage. […] To evaluate the possible mechanism for arrest of cell proliferation, cell-cycle distribution was measured using propidium iodide staining and flow cytometry. […] There are several possibilities that could account for this, including: (i) that cell lysis occurs rapidly following induction of apoptosis, preventing significant accumulation of annexin V-positive bodies, or (ii) that a distinct cell death pathway is triggered by compound 19.
(§2) Human metastatic breast cancer MDA-MB-231 cells were obtained from the American Type Culture Collection (ATCC) (Rockville, Md.) and maintained in Dulbecco's Modified Eagle's Medium (DMEM) containing 10% fetal bovine serum (FBS) without antibiotics at 37° C. in a humidified, CO2-controlled incubator. The cytotoxicity of compounds 1 and 2 was assessed by reduction of 3-(4, 5-dimethylthiazol-2-yl)-2,5-diphenyltetrazolium bromide (MTT). MDA-MB-231 cells were seeded in 96-well plates at 5×10^3 cells per well and treated with a range of drug concentrations. After 48 hours, cell viability was measured using the MTT Cell Proliferation Assay kit (ATCC) according to the manufacturer's instructions. Percent cell viability was plotted as a function of drug concentrations and analyzed using a sigmoidal dose response function with PRISM v3.03 software (GraphPad) to resolve drug concentrations yielding 50% cell death (IC50). The cell cycle distributions of MDA-MB-231 cells treated with compounds 1 or 2 were analyzed using propidium iodide staining and flow cytometry. 2×10^6 cells were seeded in 100 mm dishes and treated with compounds 1 or 2 at the IC80 values determined by cell viability assays or an equivalent volume of DMSO. 48 h following treatment the cells were collected, fixed, and stained with propidium iodide (Sigma Aldrich) immediately before analysis by flow cytometry.
As shown in Example 11, compounds 1 and 2 both induced apoptosis but involving a mechanism independent of cell cycle arrest. To test whether the toxicity of these agents for MDA-MB-231 cells proceeded via a similar pathway, their effects were monitored on cell cycle distributions using propidium iodide staining and flow cytometry. […]

MDA-MB-231 cells [4] = test: MTT cytotoxicity, MDA-MB-231; format: cell-based; details: Homo sapiens; MDA-MB-231, cell viability (MTT), 48 h; read-out: IC80 (equitoxic dose)
Procedure: as §2

[5] = system: Pseudomonas aeruginosa ATCC 27853; test: Antimicrobial growth inhibition, P. aeruginosa; format: cell-based; details: ATCC27853; Pseudomonas aeruginosa ATCC 27853, 100 μM
Procedure: as §1, with “Compounds 1, 2, 5 and 19 were screened for growth inhibition activity against a panel of bacteria and fungi at a concentration of 100 as shown in Table 2. Compound 5 was included to test the importance of the C4-Cl substituent for activity across a broader range of biological systems.” left out

[6] = system: Bacillus subtilis ATCC 6633; test: Antimicrobial growth inhibition, B. subtilis; format: cell-based; details: ATCC6633; Bacillus subtilis ATCC 6633, 100 μM
Procedure: as §1

Row | Compound | inhibition at 100 µM [1] | inhibitory activity against twenty kinases (twenty kinases) | changes in L1210 cell cycle distribution (L1210 cells) | inhibition at 100 µM [2] | cells accumulated in G2/M phase (MDA-MB-231 cells [3]; MDA-MB-231, IC80 dose, 48 h) | IC80 (MDA-MB-231 cells [4]) | inhibition at 100 µM [5] | inhibition at 100 µM [6] | effect on cell cycle distribution (MDA-MB-231 cells [3]; MDA-MB-231, IC80 dose, 48 h) | cells arrested in G2/M stage (MDA-MB-231 cells [3]; 15 μM)
1 | Clc1nc(Cl)c2sccc2n1 [Compound 1, 2,4-Dichlorothieno[3,2-d]pyrimidine] | < 43% | did not exhibit any substantial inhibitory activity | no substantial changes | < 43% | > 70% | 15 µM | < 43% | 43% | – | –
2 | Clc1nc(Cl)c2scc(Br)c2n1 [Compound 2, 7-Bromo-2,4-dichlorothieno[3,2-d]pyrimidine] | < 43% | did not exhibit any substantial inhibitory activity | no substantial changes | < 43% | – | 8 µM | < 43% | < 43% | no effect | –
3 | Clc1nc(Cl)c2[nH]ccc2n1 [Compound 19, 2,4-Dichloropyrrolo[3,2-d]pyrimidine] | < 43% | – | – | – | – | – | – | < 43% | – | 60%
